According to ChEMBL document CHEMBL3124935, “Synthesis and study of cytotoxic activity of 1,2,4-trioxane- and egonol-derived hybrid molecules against Plasmodium falciparum and multidrug-resistant human leukemia cells” (Eur J Med Chem, 2014):

Assays:
[1] = system: Plasmodium falciparum; assay: Antimalarial activity against Plasmodium falciparum 3D7 assessed as growth inhibition after 3 days by HRP2 based ELISA; assay type: functional, organism-based; conditions: 3D7, 72 h
[2] = Cytotoxicity against human multidrug-resistant CEM/ADR5000 cells expressing p-glycoprotein at 400 uM by resazurin assay; assay type: functional, cell-based
[3] = system: CCRF-CEM; assay: Cytotoxicity against human CCRF-CEM cells by resazurin assay; assay type: functional, cell-based
[4] = system: CCRF-CEM; assay: Resistance ratio of IC50 for human multidrug-resistant CEM/ADR5000 cells expressing p-glycoprotein to IC50 for human CCRF-CEM cells; assay type: functional
[5] = Cytotoxicity against human multidrug-resistant CEM/ADR5000 cells expressing p-glycoprotein by resazurin assay; assay type: functional, cell-based

| Compound | IC50 [1] [nM] | IC50 [2] | IC50 [3] [nM] | Ratio IC50 [4] | IC50 [5] [nM] |
| --- | --- | --- | --- | --- | --- |
| C[C@H]1[C@H](OC(=O)CCC(=O)NCC(O)CNC(=O)CCC(=O)O[C@@H]2O[C@@H]3O[C@@]4(C)CC[C@H]5[C@H](C)CC[C@@H]([C@H]2C)[C@@]35OO4)O[C@@H]2O[C@@]3(C)CC[C@H]4[C@H](C)CC[C@@H]1[C@@]24OO3 (some centres undefined) | 0.32 | – | – | – | – |
| C[C@@H]1CC[C@H]2[C@@H](C)C(CCCO)O[C@@H]3O[C@@]4(C)CC[C@@H]1[C@]32OO4 (some centres undefined) | – | Not Active | 174000 | – | – |
| C[C@@H]1CC[C@H]2[C@@H](C)C(=O)O[C@@H]3O[C@@]4(C)CC[C@@H]1[C@]32OO4 [ARTEMISININ] | – | – | – | 0.73 | – |
| COc1cc(CCCOC(=O)CCC(=O)O[C@@H]2O[C@@H]3O[C@@]4(C)CC[C@H]5[C@H](C)CC[C@@H]([C@H]2C)[C@@]35OO4)cc2cc(-c3ccc4c(c3)OCO4)oc12 | 2.3 | – | 180 | 6.12 | 1120 |
| C[C@H]1[C@H](OC(=O)CCC(=O)NCCCCCCCCNC(=O)CCC(=O)O[C@@H]2O[C@@H]3O[C@@]4(C)CC[C@H]5[C@H](C)CC[C@@H]([C@H]2C)[C@@]35OO4)O[C@@H]2O[C@@]3(C)CC[C@H]4[C@H](C)CC[C@@H]1[C@@]24OO3 | 0.3 | – | – | – | – |
| COc1cc(CCCO)cc2cc(-c3ccc4c(c3)OCO4)oc12 [EGONOL] | 25400 | – | 5750 | 1.7 | 9780 |
| C[C@H]1[C@H](OC(=O)CCC(=O)O)O[C@@H]2O[C@@]3(C)CC[C@H]4[C@H](C)CC[C@@H]1[C@@]24OO3 [ARTESUNATE] | 0.82 | – | – | 0.67 | 1200 |
| COc1cccc2c1C(=O)c1c(O)c3c(c(O)c1C2=O)C[C@@](O)(C(=O)CO)C[C@@H]3O[C@H]1C[C@H](N)[C@H](O)[C@H](C)O1 [DOXORUBICIN] | – | – | 9 | 2585 | 23300 |
